# Like-named read-outs stand apart in the source and are kept apart here.
# Experiments:
# [1] = tested on: HPV 16 pseudovirus; experiment: Screening for anti-infection compounds (GFP-expressing HPV 16 pseudovirus infecting HeLa cells); assay type: cell-based, human papilloma virus 16; details: for IC50: Pseudovirus, HeLa, 48 h, read-out: IC50 for inhibiting HPV 16 pseudoviruses
# Description: […] were co-transfected with codon-modified papillomavirus capsid genes, L1 and L2, plasmid: p16shell, and a GFP reporter plasmid, pClneo-GFP, to monitor the infectivity of the stock.
# The GFP-expressing HPV 16 pseudoviruses were prepared and harvested in accordance with the protocol provided by the National Cancer Institute (USA). Said protocol is available on line at http://home.ccr.cancer.gov/lco/production.asp which is incorporated herein by reference in its entirety.
# In the present application, the GFP-expressing HPV 16 pseudoviruses used have titers of about 4*10^8 infectious units per ml.
# HeLa cells were seeded in 96-well plates at a density of 6×10^3 cells per well. 24 hours later, 2×HPV 16 pseudoviruses of various volumes were added. The signal to background ratio of each volume of the HPV 16 pseudoviruses was illustrated in FIG. 2.
# When choosing screening platform, the infection rate should be around 20%. […] Under this dosage, the signal to background ratio is 2.0-2.5.
# (§1) Carrageenan was used as positive control. […] The cell survival rate and IC50 of each sample were obtained in accordance with the method stated above.
# [2] = tested on: HeLa cells; experiment: MTT assay within the anti-infection screening platform; assay type: cell-based, human; details: 48 hours, concentrations inhibiting HPV 16 pseudovirus
# Text: as §1
# [3] = tested on: HeLa cells; experiment: Cytotoxicity assay (MTT assay) on HeLa cells; details: for IC50: Homo sapiens, HeLa; for cytotoxicity to HeLa cells compared with Doxorubicin HCl: under the corresponding conditions
# Description: HeLa cell line was obtained from Dr. S. S. Shen (Biomedical Engineering Research Laboratories of Industrial Technology Research Institute of Taiwan). HeLa cells are adherent cells and were propagated and maintained in Dulbecco's modified Eagle's medium (DMEM) supplemented with 10% fetal bovine serum (FBS), […] sodium bicarbonate (NaHCO3), 1 mM sodium pyruvate, and 0.1 mM non-essential amino acid.
# (§2) Cytotoxicity Assay (MTT Assay)
# The cytotoxicity of the compounds set forth herein to HeLa cells and HUVEC cells were determined by the MTT assay. The HUVEC cells were used to understand the cytotoxicity of said compounds to normal human cells. Besides, doxorubicin HCl was used as a comparative example so as to investigate the efficacy of the compounds according to the embodiments of the present invention.
# Briefly, the MTT assay comprises the following steps: • (A) Cells were seeded in 96-well plates 3 hours before treatment, wherein the density of HeLa cell is 1×10^4 cells per well and the density of HUVEC cell is 2×10^4 cells per well; • (B) Cells were then treated with various concentrations of tested samples and incubated for a predetermined period (24, 48, and 72 hours); • (C) After the predetermined periods expired, the tested samples were removed and 100 μl MTT reagent (1 mg/ml) was added to each well; • (D) The plates were incubated at 37° C. with 5% of CO2 for 5 hours; • (E) The MTT reagent was removed and 100 μl DMSO was added to each well; • (F) The optical density (O.D.) of each well was determined by ELISA reader at a wavelength of 560 nm.
# Each experiment was repeated for 3 times and the result shown in the tables herein were the mean value of the 3 repetitions. The O.D. of the vehicle control and experimental groups were recorded. The cell survival rate of each sample was calculated as follows:
# Cell survival rate(%)=O.D.control/O.D.experimental*100%
# Then, the cell survival rate was plotted against the compound concentration and the IC50 value of each compound was calculated by the GraFit data analysis software (Erithacus Software Ltd.).
# [4] = tested on: HUVEC cells; experiment: Cytotoxicity assay (MTT assay) on HUVEC cells; assay type: cell-based, human
# Text: Human umbilical vein endothelial cells (HUVEC) were purchased from Food Industry Research and Development Institute in Hsin-Chu City, Taiwan. HUVEC cells were propagated and maintained in Medium 199 supplemented with 10% FBS, Heparin, and […].
# as §2
compound,measurement,setting,value
"O=c1cc(-c2ccccc2)oc2cc(O)c(O)c(O)c12 [Compound C, baicalein]",IC50,[1],8.2 mg/L
same,survival rates of HeLa cells in anti-infection screening,[2],higher than 80%
"O=C(O)c1cc(O)c(O)c(O)c1 [Compound D, gallic acid]",HeLa Cell Survival Rate,"[3]; 0.125 μg/ml, 24 hrs",85%
same,HeLa Cell Survival Rate,"[3]; 0.125 μg/ml, 48 hrs",96%
same,HeLa Cell Survival Rate,"[3]; 0.125 μg/ml, 72 hrs",101%
same,HeLa Cell Survival Rate,"[3]; 1.25 μg/ml, 24 hrs",84%
same,HeLa Cell Survival Rate,"[3]; 1.25 μg/ml, 48 hrs",91%
same,HeLa Cell Survival Rate,"[3]; 1.25 μg/ml, 72 hrs",103%
same,HeLa Cell Survival Rate,"[3]; 12.5 μg/ml, 24 hrs",90%
same,HeLa Cell Survival Rate,"[3]; 12.5 μg/ml, 48 hrs",82%
same,HeLa Cell Survival Rate,"[3]; 12.5 μg/ml, 72 hrs",99%
same,HeLa Cell Survival Rate,"[3]; 125 μg/ml, 24 hrs",17%
same,HeLa Cell Survival Rate,"[3]; 125 μg/ml, 48 hrs",11%
same,HeLa Cell Survival Rate,"[3]; 125 μg/ml, 72 hrs",8%
same,IC50,"[3]; 24 h, read-out: IC50 at 24 hours, HeLa",37 mg/L
same,IC50,"[3]; 48 h, read-out: IC50 at 48 hours, HeLa",26 mg/L
same,IC50,"[3]; 72 h, read-out: IC50 at 72 hours, HeLa",45 mg/L
same,cytotoxicity to HeLa cells compared with Doxorubicin HCl,[3],higher cytotoxicity
same,IC50,[1],8.9 mg/L
same,survival rates of HeLa cells in anti-infection screening,[2],higher than 80%
Carrageenan [reference compound],IC50 for inhibiting HPV 16 pseudoviruses,"[1]; HeLa cells infected with 0.25 μl HPV 16 pseudovirus per well, 48 hours",about 0.07 μg/ml
isopsoralen [Compound A],HeLa Cell Survival Rate,"[3]; 0.125 μg/ml, 24 hrs",91%
same,HeLa Cell Survival Rate,"[3]; 0.125 μg/ml, 48 hrs",99%
same,HeLa Cell Survival Rate,"[3]; 0.125 μg/ml, 72 hrs",98%
same,HeLa Cell Survival Rate,"[3]; 1.25 μg/ml, 24 hrs",88%
same,HeLa Cell Survival Rate,"[3]; 1.25 μg/ml, 48 hrs",75%
same,HeLa Cell Survival Rate,"[3]; 1.25 μg/ml, 72 hrs",69%
same,HeLa Cell Survival Rate,"[3]; 12.5 μg/ml, 24 hrs",70%
same,HeLa Cell Survival Rate,"[3]; 12.5 μg/ml, 48 hrs",30%
same,HeLa Cell Survival Rate,"[3]; 12.5 μg/ml, 72 hrs",10%
same,HeLa Cell Survival Rate,"[3]; 125 μg/ml, 24 hrs",18%
same,HeLa Cell Survival Rate,"[3]; 125 μg/ml, 48 hrs",11%
same,HeLa Cell Survival Rate,"[3]; 125 μg/ml, 72 hrs",7%
same,HUVEC/HeLa ratio of IC50,[3]; 24 hours,>4.6
same,HUVEC/HeLa ratio of IC50,[3]; 48 hours,11.4
same,HUVEC/HeLa ratio of IC50,[3]; 72 hours,19
same,"IC50 at 24 hours, HeLa","[3]; HeLa cells, 24 hours",27 mg/L
same,"IC50 at 48 hours, HeLa","[3]; HeLa cells, 48 hours",5 mg/L
same,"IC50 at 72 hours, HeLa","[3]; HeLa cells, 72 hours",2 mg/L
same,cytotoxicity to HeLa cells compared with Doxorubicin HCl,[3],higher cytotoxicity
same,HUVEC Cell Survival Rate,"[4]; 0.125 μg/ml, 24 hrs",103%
same,HUVEC Cell Survival Rate,"[4]; 0.125 μg/ml, 48 hrs",104%
same,HUVEC Cell Survival Rate,"[4]; 0.125 μg/ml, 72 hrs",92%
same,HUVEC Cell Survival Rate,"[4]; 1.25 μg/ml, 24 hrs",103%
same,HUVEC Cell Survival Rate,"[4]; 1.25 μg/ml, 48 hrs",96%
same,HUVEC Cell Survival Rate,"[4]; 1.25 μg/ml, 72 hrs",87%
same,HUVEC Cell Survival Rate,"[4]; 12.5 μg/ml, 24 hrs",100%
same,HUVEC Cell Survival Rate,"[4]; 12.5 μg/ml, 48 hrs",83%
same,HUVEC Cell Survival Rate,"[4]; 12.5 μg/ml, 72 hrs",80%
same,HUVEC Cell Survival Rate,"[4]; 125 μg/ml, 24 hrs",67%
same,HUVEC Cell Survival Rate,"[4]; 125 μg/ml, 48 hrs",31%
same,HUVEC Cell Survival Rate,"[4]; 125 μg/ml, 72 hrs",19%
same,"IC50 at 24 hours, HUVEC","[4]; HUVEC cells, 24 hours",>125 mg/L
same,"IC50 at 48 hours, HUVEC","[4]; HUVEC cells, 48 hours",57 mg/L
same,"IC50 at 72 hours, HUVEC","[4]; HUVEC cells, 72 hours",38 mg/L
